Structures are written as SMILES.

The test system of the assay is Mycobacterium tuberculosis. The assay is described as follows: Selectivity for wild type Mycobacterium tuberculosis H37Rv ATCC 25618 over hygromycin-resistance Mycobacterium tuberculosis H37Rv ATCC 25618 overexpressing InhA. Type of assay: functional.

For the compound `CCNC(=O)[C@@H]1C[C@@H](NC(=O)c2cc(CC)nn2C)CN1C(=O)c1coc2ccccc12`, the Selectivity ratio worked out at 16.

These data come from ChEMBL document CHEMBL3124857, “Encoded library technology as a source of hits for the discovery and lead optimization of a potent and selective class of bactericidal direct inhibitors of Mycobacterium tuberculosis InhA” (J Med Chem, 2014).
